Measurements from patent publication US6727240B1, “Methods for preventing HIV-1 or HIV-2 infection” (New York Blood Center, Inc., priority 1993, dated 2004).

How the values were obtained:
[1] = system: HIV-1
Protocol: They were tested for antiviral activity at serial two-fold dilutions (0.16-80 μg/ml^−1). Their inhibitory activity was determined based on inhibition of synthesis of the HIV-1 core protein p24 and on protection by the compounds of cells against the cytopathic effect of HIV-1. The cytotoxic effect of all compounds in the absence of HIV-1 was also determined.
The antiviral activity of the compounds was tested against HIV-1 IIIB, MN, RF and SF-2, as well as against azidothymidine (AZT) resistant variants V32 (Nara, P. L., Smit, L., Dunlop, N., Hatch, W., Merges, M., Waters, D. Kelliher, J., Gallo, R. C., Fischinger, P. J. & Goudsmit, J. (1990), “Emergence of Viruses Resistant to Neutralization by V3-specific Antibodies in Experimental Human Immunodeficiency Virus Type 1 IIIB Infection of Chimpanzees, J. Virol., 64, 3779-3791) and AZT-R (see FIG. 1B).
All chemicals were tested at serial two-fold dilutions (1.25-80 μgml^−1, prepared from a stock solution containing 10 mgml^−1 in dimethylsulphoxide). […] Their inhibitory activity was determined by two distinct methods, based on inhibition of synthesis of core protein p24 and on protection by the chemicals of cells against the cytophathic effect of HIV-1 (colorimetric method), respectively.
The chemicals were serially diluted in RPMl-1640 medium without phenol red (Gibco, Grand Island, N.Y.) containing 10% fetal calf serum (FCS). Aliquots of the diluted solutions were added to wells of 96-well plates and mixed with an equal volume of diluted HIV-1 [multiplicity of infection (MOl)=0.0045]. After incubation for 1 hour at 37° C., 25 μl of polybrene (1 μgml^−1)-treated MT-2 cells (Harada et al., (1985), “Infection of HTLV-III/LAV in HTLV-1-Carrying Cells MT-2 and MT-4 and Application in Plaque Assay”, Science, 229, 563-566) (5000 cells/well) were added. The mixture was incubated for 1 hour at 37° C. and the volume was adjusted with RPMl-1640 medium with 10% FCS to 200 μl. On the fourth and sixth day after incubation at 37° C., 100 μl of culture supernatants were collected from each well and equal volumes of fresh medium were added to the wells. The supernatants were collected from each well and equal volumes of fresh medium were added to the wells. The supernatants were assayed for p24 using a kit from Coulter Immunology (Hialeah, Fla.). On the sixth day, an indicator, XTT tetrazolium dye (1 mg/ml:50 μl/well; PolySciences, Inc., Warrington, Pa.) was added to the cells. After 4 hours intracellular formazan was determined colorimetrically at 450 nm.

[2] = system: MT-2 cells; assay: Cytotoxic effect in the absence of HIV-1 (lysis of uninfected cells); assay type: cell-based
[3] = system: deletion mutant of gp120 lacking the V3 loop sequence; assay: Binding of CD4-binding-site mAbs to gp120 deletion mutant; design: species or system HIV-1
[4] = biological target: T1, CD4 binding site of gp120 (recombinant gp120) (Human immunodeficiency virus type 1 group M subtype B, UniProt P03375); assay: ELISA: binding of mAb 588D to gp120-coated wells; design: species or system HIV-1; conditions: mAb 588D 200 ng/well; FIG. 3
T1 construct: recombinant gp120 produced insect cells infected with a baculovirus vector; host or cells: insect cells infected with a baculovirus vector
Protocol: (§1) The inhibitory effect of PTP-IX and its metal derivatives on binding to gp120 of monoclonal antibodies (mAbs) specific for the V3 loop or for the CD4 binding site was measured by ELISA tests using as second antibodies horseradish peroxidase (HRP) labeled anti-mouse IgG.
The inhibitory effect of Sn-PTP-IX on the reaction between gp120 and mAb specific for the CD4 binding site on gp120 was also investigated. For this purpose, mAb 588D (obtained from the AIDS Research and Reagent Reference Program and from Dr. S. Zolla-Pazner of New York Veterans Affairs Medical Center) was used.
(§2) The inhibitory effect of PTP-IX and its metal complexes on the reaction between antibodies of distinct specificities and gp120 (or synthetic peptides derived from it) was calculated by the following formula: [formula]

[5] = system: V3 hypervariable loop peptides from gp120 from 21 distinct HIV-1 isolates; assay: ELISA: reaction of V3 hypervariable loop peptides with homologous anti-peptide antisera; assay type: binding; conditions: rabbit antisera diluted 1:1,000; FIG. 2
Protocol: as §1
Sn-PTP-IX was also tested for inhibition of the reaction between V3 hypervariable loop peptides from 21 distinct HIV-1 isolates and the corresponding homologous antipeptide antibodies. […] With respect of FIG. 2, peptide coated wells of polystyrene plates were reacted in the presence and absence of the porphyrin derivative with the respective rabbit antisera diluted 1:1,000, and the attachment of rabbit IgG was subsequently determined using horseradish peroxidase labeled anti-rabbit IgG.
as §2

[6] = versus Sn-PTP-IX; cited from earlier work

Compound	S.I. = selectivity index = CD50/ED50 (toxicity/activity) [1]	CD50 = concentration at which 50% of uninfected cells were lysed [2] [µg/mL]	other results
C=CC1=C(C)c2cc3[nH]c(cc4nc(cc5[nH]c(cc1n2)c(C)c5CCC(=O)O)C(CCC(=O)O)=C4C)c(C)c3C=C [Protoporphyrin IX]	7.3	–	–
C=Cc1c2[n-]c(c1C)/C=c1\[n-]/c(c(C)c1C=C)=C\c1[n-]c(c(CCC(=O)O)c1C)C=c1[n-]/c(c(C)c1CCC(=O)O)=C\2.[Sn+4] [Sn-Protoporphyrin IX, tin protoporphyrin IX]	33.5	18.0	Inhibition of binding of CD4-binding-site mAbs to gp120 lacking the V3 loop [3]: not observed; Inhibition of binding of mAb 588D to gp120 [4]: blocked in a concentration dependent manner; Inhibition of the reaction between V3 loop peptides and homologous antibodies [5]: inhibited; Inhibition of HIV-1 infection (in words) ([1]; compared with metal-free PTP-IX): effectively inhibited HIV-1 infection at considerably lower concentrations than did metal-free PTP-IX
C=CC1=C(C)c2cc3[n-]c(cc4[n-]c(cc5nc(cc1n2)C(C)=C5C=C)c(C)c4CCC(=O)O)c(CCC(=O)O)c3C.[Mn+2] [Mn-Protoporphyrin IX]	>2.8	>80	–
tin mesoporphyrin IX [Sn-Mesoporphyrin IX]	>5.6	>20	–
C=CC1=C(C)c2cc3[n-]c(cc4[n-]c(cc5nc(cc1n2)C(C)=C5C=C)c(C)c4CCC(=O)O)c(CCC(=O)O)c3C.[Zn+2] [Zn-Protoporphyrin IX]	>3.1	–	ED50 values relative to Sn-PTP-IX (times higher) [6]: approximately 50 times
C=Cc1c(C)c2cc3[nH]c(cc4nc(cc5nc(cc1[nH]2)C(C)=C5CCC(=O)[O-])C(CCC(=O)[O-])=C4C)c(C)c3C=C.[Co+2] [Co-Protoporphyrin IX]	>6.2	–	–
